Experimental data: US7939537B2, “HIV integrase inhibitors” (Istituto Di Ricerche Di Biologia Molecolare P. Angeletti …, priority 2006, dated 2011)

Test system: HIV
Assay: Assay for inhibition of HIV replication (spread assay; acute HIV infection of T-lymphoid cells)
Format: cell-based
Details: Human immunodeficiency virus 1, tested up to 1 micromolar
Protocol: Assay for Inhibition of HIV Replication
Assays for the inhibition of acute HIV infection of T-lymphoid cells were conducted in accordance with Vacca, J. P. et al., Proc. Natl. Acad. Sci. USA 1994, 91: 4096. […] The compounds of Examples 6, 8, 9, 14, 15, 21-23 and 29-35 were also tested in the spread assay up to 1 micromolar, but specific IC95 values were not obtained; i.e., the IC95 values for these compounds are greater than 1 micromolar.

`O=C(NCc1ccc(F)cc1)c1nc2ccc(Br)cn2c(=O)c1O` [Example 35, 7-bromo-N-(4-fluorobenzy1)-3-hydroxy-4-oxo-4H-pyrido[1,2-a]pyrimidine-2-carboxamide] showed an IC95 greater than 1 µM.
